Measured values published in ChEMBL document CHEMBL4152250, “Antibacterial and anti-TB tat-peptidomimetics with improved efficacy and half-life” (Eur J Med Chem, 2018).
Converted amounts (≈) assume the structure as drawn. The source made the active and inactive calls. The calls are words filed in the database; no cut-off is given here.

Tests used:
[1] = Drug degradation assessed as pepsin (unknown origin)-mediated compound hydrolysis by measuring remaining compound levels at 8 hrs by RP-HPLC method; assay type: ADME; settings: human, read-out: Stability
[2] = Drug degradation assessed as bovine pancreas chymotrypsin-mediated compound hydrolysis by measuring remaining compound levels at 10 mM measured at 18 hrs by RP-HPLC method; assay type: ADME, Bos taurus; settings: cattle, read-out: Stability
[3] = Drug degradation assessed as pepsin (unknown origin)-mediated compound hydrolysis by measuring remaining compound levels at 24 hrs by RP-HPLC method; assay type: ADME; settings: human, read-out: Stability
[4] = Drug degradation assessed as pepsin (unknown origin)-mediated compound hydrolysis by measuring remaining compound levels at 2 hrs by RP-HPLC method; assay type: ADME; settings: human, read-out: Stability
[5] = Drug degradation assessed as bovine pancreas chymotrypsin-mediated compound hydrolysis by measuring remaining compound levels at 10 mM measured at 0.5 hrs by RP-HPLC method; assay type: ADME, Bos taurus; settings: cattle, read-out: Stability
[6] = Drug degradation assessed as bovine pancreas chymotrypsin-mediated compound hydrolysis by measuring remaining compound levels at 10 mM measured at 4 hrs by RP-HPLC method; assay type: ADME, Bos taurus; settings: cattle, read-out: Stability
[7] = Drug degradation assessed as pepsin (unknown origin)-mediated compound hydrolysis by measuring remaining compound levels at 0.5 hrs by RP-HPLC method; assay type: ADME; settings: human, read-out: Stability
[8] = Drug degradation assessed as bovine pancreas chymotrypsin-mediated compound hydrolysis by measuring remaining compound levels at 10 mM measured at 1 hr by RP-HPLC method; assay type: ADME, Bos taurus; settings: cattle, read-out: Stability
[9] = system: Mycobacterium tuberculosis; assay: Antitubercular activity against dormant stage of Mycobacterium tuberculosis H37Ra ATCC 25177 after 12 days by XRMA; assay type: functional, organism-based; settings: H37Ra ATCC 25177, 288 h
Bacillus subtilis = assay: Antibacterial activity against Bacillus subtilis NCIM 2079 after 12 hrs by serial dilution method; assay type: functional, organism-based; settings: NCIM 2079, 12 h
[10] = Drug degradation assessed as bovine pancreas chymotrypsin-mediated compound hydrolysis by measuring remaining compound levels at 10 mM measured at 8 hrs by RP-HPLC method; assay type: ADME, Bos taurus; settings: cattle, read-out: Stability
Pseudomonas aeruginosa = assay: Antibacterial activity against Pseudomonas aeruginosa NCIM 2036 after 8 hrs by serial dilution method; assay type: functional, organism-based; settings: NCIM 2036, 8 h
Staphylococcus aureus [11] = assay: Antibacterial activity against Staphylococcus aureus NCIM 2010 after 12 hrs by serial dilution method; assay type: functional, organism-based; settings: NCIM 2010, 12 h
[12] = Drug degradation assessed as pepsin (unknown origin)-mediated compound hydrolysis by measuring remaining compound levels at 1 hr by RP-HPLC method; assay type: ADME; settings: human, read-out: Stability
[13] = Drug degradation assessed as pepsin (unknown origin)-mediated compound hydrolysis by measuring remaining compound levels at 4 hrs by RP-HPLC method; assay type: ADME; settings: human, read-out: Stability
[14] = Drug degradation assessed as bovine pancreas chymotrypsin-mediated compound hydrolysis by measuring compound half life at 10 mM by RP-HPLC method; assay type: ADME, Bos taurus; settings: cattle
[15] = Cytotoxicity against human HeLa cells assessed as cell viability at 1 to 10 uM after 24 hrs by MTT assay relative to control; assay type: cell-based; settings: read-out: Activity
Escherichia coli [16] = assay: Antibacterial activity against Escherichia coli NCIM 2688 after 8 hrs by serial dilution method; assay type: functional, organism-based; settings: NCIM 2688, 8 h
[17] = Drug degradation assessed as bovine pancreas chymotrypsin-mediated compound hydrolysis by measuring remaining compound levels at 10 mM measured at 12 hrs by RP-HPLC method; assay type: ADME, Bos taurus; settings: cattle, read-out: Stability
[18] = Drug degradation assessed as bovine pancreas chymotrypsin-mediated compound hydrolysis by measuring remaining compound levels at 10 mM measured at 24 hrs by RP-HPLC method; assay type: ADME, Bos taurus; settings: cattle, read-out: Stability
[19] = system: Mycobacterium tuberculosis; assay: Antitubercular activity against active stage of Mycobacterium tuberculosis H37Ra ATCC 25177 after 8 days by XRMA; assay type: functional, organism-based; settings: H37Ra ATCC 25177, 192 h
Enterobacter sp. = assay: Antibacterial activity against Enterobacter sp. NCIM 5392 after 8 hrs by serial dilution method; assay type: functional, organism-based; settings: NCIM 5392, 8 h
[20] = system: Staphylococcus epidermidis; assay: Antibacterial activity against Staphylococcus epidermidis NCIM 5270 after 12 hrs by serial dilution method; assay type: functional, organism-based; settings: NCIM 5270, 12 h
[21] = Drug degradation assessed as pepsin (unknown origin)-mediated compound hydrolysis by measuring remaining compound levels at 12 hrs by RP-HPLC method; assay type: ADME; settings: human, read-out: Stability
[22] = Drug degradation assessed as bovine pancreas chymotrypsin-mediated compound hydrolysis by measuring remaining compound levels at 10 mM measured at 2 hrs by RP-HPLC method; assay type: ADME, Bos taurus; settings: cattle, read-out: Stability
[23] = Drug degradation assessed as pepsin (unknown origin)-mediated compound hydrolysis by measuring remaining compound levels at 18 hrs by RP-HPLC method; assay type: ADME; settings: human, read-out: Stability
Staphylococcus aureus [24] = assay: Disruption of cell wall in Staphylococcus aureus NCIM 2010 at MIC after 60 mins by transmission electron microscopic method; assay type: functional, organism-based
Erythrocyte = assay: Hemolytic activity in human RBC at 1 to 40 uM after 1 hr; assay type: ADME, cell-based
[25] = system: Mycobacterium tuberculosis; assay: Disruption of cell wall in dormant stage of Mycobacterium tuberculosis H37Ra ATCC 25177 at MIC after 60 mins by transmission electron microscopic method; assay type: functional, organism-based
[26] = system: Mycobacterium tuberculosis; assay: Disruption of cell wall in active stage of Mycobacterium tuberculosis H37Ra ATCC 25177 at MIC after 60 mins by transmission electron microscopic method; assay type: functional, organism-based
Staphylococcus aureus [27] = assay: Antibacterial activity against Staphylococcus aureus NCIM 2010 assessed as decrease in bacterial viability at 10 ug/ml after 4 hrs by SYTO9/propidium iodide staining-based fluorescence microscopic method; assay type: functional, organism-based
Escherichia coli [28] = assay: Disruption of cell wall in Escherichia coli NCIM 2688 at MIC after 60 mins by transmission electron microscopic method; assay type: functional, organism-based

Row | Compound | remaining at 8 h [1] | remaining at 18 h, 10000 µM [2] | remaining at 24 h [3] | remaining at 2 h [4] | remaining at 0.5 h, 10000 µM [5] | remaining at 4 h, 10000 µM [6] | remaining at 0.5 h [7] | remaining at 1 h, 10000 µM [8] | IC50 [9] | IC50 (Bacillus subtilis) | MIC (Bacillus subtilis) | remaining at 8 h, 10000 µM [10] | IC50 (Pseudomonas aeruginosa) | MIC (Pseudomonas aeruginosa) | IC50 (Staphylococcus aureus [11]) | MIC (Staphylococcus aureus [11]) | remaining at 1 h [12] | remaining at 4 h [13] | half-life at 10000 µM [14] | viability at 24 h, up to 10 µM [15] | further results
1 | CC(=O)N[C@@H](Cc1ccccc1)C(=O)NCC(=O)N[C@@H](CCCNC(=N)N)C(=O)N[C@@H](CCCCN)C(=O)N[C@@H](CCCCN)C(=O)N[C@@H](CCCNC(=N)N)C(=O)N[C@@H](CCCNC(=N)N)C(=O)N[C@@H](CCC(N)=O)C(=O)N[C@@H](CCCNC(=N)N)C(=O)N[C@@H](CCCNC(=N)N)C(=O)N[C@@H](CCCNC(=N)N)C(N)=O | 90.6% | 75.1% | 80.6% | 93.1% | 86.7% | 82.6% | 94.6% | 86% | 40 µM | 0.012 µM | 3.34 µM (≈ 5.29 µg/mL) | 79.6% | 0.0265 µM | 7.46 µM (≈ 11.8 µg/mL) | 0.0113 µM | 9.91 µM (≈ 15.7 µg/mL) | 94.2% | 93% | 4 h | ≥ 80% | IC50 (Escherichia coli [16]): 0.0101 µM; MIC (Escherichia coli [16]): 6.27 µM (≈ 9.94 µg/mL); remaining at 12 h, 10000 µM [17]: 78.2%; remaining at 24 h, 10000 µM [18]: 15.9%; IC50 [19]: > 60 µM; IC50 (Enterobacter sp.): 0.024 µM; MIC (Enterobacter sp.): 21.6 µM (≈ 34.2 µg/mL); IC50 [20]: 0.0069 µM; MIC [20]: 5.78 µM (≈ 9.16 µg/mL); remaining at 12 h [21]: 89%; remaining at 2 h, 10000 µM [22]: 84.6%; remaining at 18 h [23]: 82.1%
2 | CC(=O)N[C@@H](Cc1ccccc1)C(=O)NCC(=O)N[C@H]1C[C@@H](C(=O)N[C@@H](CCCCN)C(=O)N[C@@H](CCCCN)C(=O)N[C@@H](CCCNC(=N)N)C(=O)N[C@H]2C[C@@H](C(=O)N[C@@H](CCC(N)=O)C(=O)N[C@H]3C[C@@H](C(=O)N[C@@H](CCCNC(=N)N)C(=O)N[C@H]4C[C@@H](C(=O)NCCC(N)=O)N(CCCNC(=N)N)C4)N(CCCNC(=N)N)C3)N(CCCNC(=N)N)C2)N(CCCNC(=N)N)C1 | 100% | 100% | 100% | 100% | 100% | 100% | 100% | 100% | 3.7 µM | 0.0037 µM | 0.71 µM (≈ 1.33 µg/mL) | 100% | 0.0042 µM | 0.61 µM (≈ 1.14 µg/mL) | 0.0064 µM | 1.26 µM (≈ 2.36 µg/mL) | 100% | 100% | 16 h | ≥ 80% | MIC [9]: 36.3 µM (≈ 68.1 µg/mL); Activity (Staphylococcus aureus [24]): Active; IC50 (Escherichia coli [16]): 0.0053 µM; MIC (Escherichia coli [16]): 1.12 µM (≈ 2.1 µg/mL); Activity (Erythrocyte): Non-Toxic; Activity [25]: Active; remaining at 12 h, 10000 µM [17]: 100%; remaining at 24 h, 10000 µM [18]: 100%; IC50 [19]: 6.2 µM; MIC [19]: 43.9 µM (≈ 82.4 µg/mL); IC50 (Enterobacter sp.): 0.0042 µM; MIC (Enterobacter sp.): 1.35 µM (≈ 2.53 µg/mL); IC50 [20]: 0.0042 µM; MIC [20]: 1.12 µM (≈ 2.1 µg/mL); Activity [26]: Active; Activity (Staphylococcus aureus [27]): Active; remaining at 12 h [21]: 100%; remaining at 2 h, 10000 µM [22]: 100%; remaining at 18 h [23]: 100%; Activity (Escherichia coli [28]): Active
